The source of these data is patent US11021493B2, “1,4-thiazine dioxide and 1,2,4-thiadiazine dioxide derivatives as beta-secretase inhibitors and methods of use” (AMGEN INC., priority 2016, dated 2021).

In test [1] the target is T1, BACE1 (Homo sapiens (Human), UniProt P56817). Kind of test: In vitro enzymatic BACE1 FRET assay. It counts as biochemical. As to conditions: read-out: BACE1 Enzyme IC50.
Target sequence in this assay (P56817 46-501): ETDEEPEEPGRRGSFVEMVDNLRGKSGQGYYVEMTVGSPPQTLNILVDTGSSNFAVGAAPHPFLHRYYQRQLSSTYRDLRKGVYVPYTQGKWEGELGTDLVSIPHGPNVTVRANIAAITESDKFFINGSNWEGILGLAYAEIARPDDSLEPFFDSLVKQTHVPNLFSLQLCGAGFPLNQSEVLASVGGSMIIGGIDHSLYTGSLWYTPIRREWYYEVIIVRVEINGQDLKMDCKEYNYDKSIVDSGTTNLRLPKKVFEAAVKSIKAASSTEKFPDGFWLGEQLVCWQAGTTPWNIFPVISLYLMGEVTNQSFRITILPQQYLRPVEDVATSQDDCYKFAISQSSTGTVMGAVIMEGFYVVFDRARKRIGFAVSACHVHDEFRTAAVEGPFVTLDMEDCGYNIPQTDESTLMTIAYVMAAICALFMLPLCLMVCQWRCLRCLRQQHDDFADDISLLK
Another test deals with human recombinant BACE2 (Homo sapiens (Human), UniProt Q9Y5Z0). Kind of test: In vitro enzymatic BACE2 FRET assay. The following applies: read-out: BACE2 Enzyme IC50. Format: biochemical.
The target in a further test is Cathepsin D (CatD) (Homo sapiens (Human), UniProt P07339). Kind of test: In vitro enzymatic Cathepsin D (CatD) FRET assay. It counts as biochemical. As to conditions: read-out: Cat D Enzyme IC50.
Test [2] deals with T1, BACE1. Kind of test: In vitro BACE1 cell-based assay (Aβ40 in conditioned medium of cells stably expressing APP, HTRF). As to conditions: Aβ40 in conditioned media after 24 h incubation. Background: TR-FRET usually uses a lanthanide donor and a delayed reading to cut background.
Target sequence in this assay (P56817 46-501, species assumed): as the sequence (P56817 46-501) above
A further test has as its target β-secretase (Rattus norvegicus (Rat), UniProt P56819). Kind of test: In vivo inhibition of β-secretase: Aβ reduction in rat CSF and brain.

Chain of human recombinant BACE2 (Q9Y5Z0 63-518): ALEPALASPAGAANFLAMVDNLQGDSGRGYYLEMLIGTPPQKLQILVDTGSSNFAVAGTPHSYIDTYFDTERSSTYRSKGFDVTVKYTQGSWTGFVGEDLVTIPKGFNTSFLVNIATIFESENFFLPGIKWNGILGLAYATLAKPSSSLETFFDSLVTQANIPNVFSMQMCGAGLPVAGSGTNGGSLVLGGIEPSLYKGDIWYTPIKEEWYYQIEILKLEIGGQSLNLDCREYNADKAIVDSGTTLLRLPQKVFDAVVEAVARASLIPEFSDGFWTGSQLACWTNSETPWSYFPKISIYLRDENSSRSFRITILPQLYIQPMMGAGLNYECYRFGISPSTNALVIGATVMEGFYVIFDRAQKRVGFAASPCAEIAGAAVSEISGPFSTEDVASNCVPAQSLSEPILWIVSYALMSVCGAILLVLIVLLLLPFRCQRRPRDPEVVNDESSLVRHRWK
Chain of β-secretase (P56819 46-501): as the sequence (P56817 46-501) above, with G82S, V162I, L165I, S180T, V182A, I340V, L393A, Q443H counted along it
Chain of Cathepsin D (CatD) (P07339 65-412, species assumed): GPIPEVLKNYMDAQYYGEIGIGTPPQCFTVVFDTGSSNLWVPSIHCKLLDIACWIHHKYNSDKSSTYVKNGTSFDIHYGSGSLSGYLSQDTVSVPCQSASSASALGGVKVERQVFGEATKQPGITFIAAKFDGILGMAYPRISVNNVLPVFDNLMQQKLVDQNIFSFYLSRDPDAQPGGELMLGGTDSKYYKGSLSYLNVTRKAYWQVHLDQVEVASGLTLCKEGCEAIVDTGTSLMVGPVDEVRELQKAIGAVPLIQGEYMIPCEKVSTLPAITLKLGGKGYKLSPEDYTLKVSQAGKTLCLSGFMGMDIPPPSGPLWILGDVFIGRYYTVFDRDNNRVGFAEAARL
Description for β-secretase: In Vivo Inhibition of β-Secretase
Animals to be used in this experiment can be wild type, transgenic, or gene knockout animals.
A separate group of animals receive 2% hydroxypropyl methylcellulose, 1% Tween80 alone, containing no test compound, and serve as a vehicle-control group. At the end of the test period, animals are sacrificed and brain tissues, plasma or cerebrospinal fluid are collected. […] Homogenates are centrifuged at 355,000 g, 4° C. for 30 minutes. CSF or brain supernatants are then analyzed for the presence of Aβ by specific sandwich ELISA assays based on ECL (Electrochemiluminescence) technology. For example, rat Aβ40 is measured using biotinylated-4G8 (Signet) as a capture antibody and Fab40 (an in-house antibody specific to the C-terminal of Aβ40) as a detection antibody.

For `C#C[C@H](C)Oc1cnc(/C(F)=C/c2ccc(F)c([C@@]3(C)N=C(N)[C@@]4(CF)CC[C@@H]3S4(=O)=O)c2)cn1` [Example 128, (1R,4R,5S)-2-amino-4-(5-((Z)-2-(5-((S)-but-3-yn-2-yloxy)pyrazin-2-yl)-2-fluorovinyl)-2-fluorophenyl)-1-(fluoromethyl)-4-methyl-8-thia-3-azabicyclo[3.2.1]oct-2-ene 8,8-dioxide], the 50% inhibitory concentration (IC50) on BACE1 [1] stood at 4 nM; on human recombinant BACE2, 147 nM; on Cathepsin D (CatD) it was 125000 nM; at BACE1 [2] it was 18 nM. On β-secretase, the “% Aβ reduction in rat CSF at 10 mpk” value is 33%. The “% Aβ reduction in rat brain at 10 mpk” value on β-secretase is on record as 35%.

For the molecule `CC1(C)C(N)=N[C@@]2(c3ccc(/C=C(\F)c4ccc(C#N)cn4)cc3F)COC[C@H]2S1(=O)=O` [Example 261, 6-((Z)-2-(4-((4aS,7aS)-3-amino-2,2-dimethyl-1,1-dioxido-4a,5,7,7a-tetrahydro-2H-furo[3,4-b][1,4]thiazin-4a-yl)-3-fluorophenyl)-1-fluorovinyl)nicotinonitrile], the IC50 amounted to 2 nM at BACE1 [1], 12 nM on human recombinant BACE2, 178000 nM on Cathepsin D (CatD) and 34 nM at BACE1 [2]. Besides, the “% Aβ reduction in rat CSF at 10 mpk” value at β-secretase amounted to 69%. For the same molecule, the “% Aβ reduction in rat brain at 10 mpk” value on β-secretase is 60%.

Consider `CN1C(N)=N[C@](C)(c2cc(/C=C(\F)c3cnc(OCc4ncco4)cn3)cc(F)c2F)CS1(=O)=O` [Example 166, (R,Z)-3-amino-5-(2,3-difluoro-5-(2-fluoro-2-(5-(oxazol-2-ylmethoxy)pyrazin-2-yl)vinyl)phenyl)-2,5-dimethyl-5,6-dihydro-2H-1,2,4-thiadiazine 1,1-dioxide], for which the concentration for half-maximal inhibition (IC50) on BACE1 [1] stood at 4 nM; at human recombinant BACE2, 90 nM; at Cathepsin D (CatD), 40900 nM; on BACE1 [2], 4 nM. Moreover, the “% Aβ reduction in rat CSF at 10 mpk” value on β-secretase amounted to 45%. Further, the “% Aβ reduction in rat brain at 10 mpk” value on β-secretase stood at 26%.

On to `C#CCOc1cnc(/C(F)=C/c2cc(F)c(F)c([C@]3(C)CS(=O)(=O)C(C)(C)C(N)=N3)c2)cn1` [Example 204, (R,Z)-5-amino-3-(2,3-difluoro-5-(2-fluoro-2-(5-(prop-2-yn-1-yloxy)pyrazin-2-yl)vinyl)phenyl)-3,6,6-trimethyl-3,6-dihydro-2H-1,4-thiazine 1,1-dioxide], for which the IC50 at BACE1 [1] was 5 nM; on human recombinant BACE2, 179 nM; on Cathepsin D (CatD), 42700 nM; on BACE1 [2], 9 nM. In addition, the “% Aβ reduction in rat CSF at 10 mpk” value at β-secretase was found to be 65%. In addition, the “% Aβ reduction in rat brain at 10 mpk” value at β-secretase came out at 61%.

With `C#C[C@H](C)Oc1cnc(/C(F)=C/c2ccc(F)c([C@]3(C)CS(=O)(=O)C(C)(C)C(N)=N3)c2)cn1` [Example 160, (R)-5-amino-3-(5-((Z)-2-(5-((S)-but-3-yn-2-yloxy)pyrazin-2-yl)-2-fluorovinyl)-2-fluorophenyl)-3,6,6-trimethyl-3,6-dihydro-2H-1,4-thiazine 1,1-dioxide], the concentration for half-maximal inhibition (IC50) on BACE1 [1] was 1 nM; on human recombinant BACE2 it was 120 nM; at Cathepsin D (CatD), 207000 nM; on BACE1 [2], 5 nM. Moreover, the “% Aβ reduction in rat CSF at 10 mpk” value at β-secretase stood at 52%. Further, the “% Aβ reduction in rat brain at 10 mpk” value at β-secretase was found to be 34%.

Regarding `CC#C[C@H](CC)Oc1cnc(/C(F)=C/c2ccc(F)c([C@]3(C)CS(=O)(=O)C(C)(C)C(N)=N3)c2)cn1` [Example 199, (R)-5-amino-3-(2-fluoro-5-((Z)-2-fluoro-2-(5-((S)-hex-4-yn-3-yloxy)pyrazin-2-yl)vinyl)phenyl)-3,6,6-trimethyl-3,6-dihydro-2H-1,4-thiazine 1,1-dioxide], at β-secretase, the “% Aβ reduction in rat CSF at 10 mpk” value was found to be 43% and the “% Aβ reduction in rat brain at 10 mpk” value is recorded as 58%.

In the case of `CC1(C)C(N)=N[C@](C)(c2cc(/C=C(\F)c3cnc(OCC4CCC4)cn3)ccc2F)CS1(=O)=O` [Example 145, (R,Z)-5-amino-3-(5-(2-(5-(cyclobutylmethoxy)pyrazin-2-yl)-2-fluorovinyl)-2-fluorophenyl)-3,6,6-trimethyl-3,6-dihydro-2H-1,4-thiazine 1,1-dioxide], the IC50 amounted to 58 nM on BACE1 [1], 107 nM at human recombinant BACE2, 27500 nM on Cathepsin D (CatD) and 518 nM at BACE1 [2].

Consider `CC1(C)C(N)=N[C@](C)(c2cc(/C=C(\F)c3cnc(Cl)cn3)cnc2F)CS1(=O)=O` [Example 203, (R,Z)-5-amino-3-(5-(2-(5-chloropyrazin-2-yl)-2-fluorovinyl)-2-fluoropyridin-3-yl)-3,6,6-trimethyl-3,6-dihydro-2H-1,4-thiazine 1,1-dioxide], for which the concentration for half-maximal inhibition (IC50) came out at 125 nM on BACE1 [1], 56 nM on human recombinant BACE2, 85400 nM on Cathepsin D (CatD) and 196 nM at BACE1 [2].

Regarding `CN1C(N)=N[C@](C)(c2cc(/C=C(\F)c3ncc4c(n3)OCCO4)ccc2F)CS1(=O)=O` [Example 234, (R,Z)-3-Amino-5-(5-(2-(6,7-dihydro-[1,4]dioxino[2,3-d]pyrimidin-2-yl)-2-fluorovinyl)-2-fluorophenyl)-2,5-dimethyl-5,6-dihydro-2H-1,2,4-thiadiazine 1,1-dioxide], the half-maximal inhibitory concentration (IC50) on BACE1 [1] turned out to be 392 nM; at human recombinant BACE2, 554 nM; at Cathepsin D (CatD) it was 107000 nM; on BACE1 [2], 99 nM.

Consider `C[C@@H]1COc2nc(/C(F)=C/c3ccc(F)c([C@]4(C)CS(=O)(=O)N(C)C(N)=N4)c3)ncc2O1` [Example 235, (R)-3-amino-5-(2-fluoro-5-((Z)-2-fluoro-2-((R)-6-methyl-6,7-dihydro-[1,4]dioxino[2,3-d]pyrimidin-2-yl)vinyl)phenyl)-2,5-dimethyl-5,6-dihydro-2H-1,2,4-thiadiazine 1,1-dioxide], for which the IC50 came to 268 nM at BACE1 [1], 533 nM on human recombinant BACE2, 160000 nM at Cathepsin D (CatD) and 128 nM at BACE1 [2].

As to `CN1C(N)=N[C@](C)(c2cc(/C=C(/F)c3ccc(Cl)cn3)cc(F)c2F)CS1(=O)=O` [Example 151, (R,E)-3-amino-5-(5-(2-(5-chloropyridin-2-yl)-2-fluorovinyl)-2,3-difluorophenyl)-2,5-dimethyl-5,6-dihydro-2H-1,2,4-thiadiazine 1,1-dioxide], the concentration for half-maximal inhibition (IC50) at BACE1 [1] was found to be 240 nM; on human recombinant BACE2 it was 121 nM; on Cathepsin D (CatD) it was 40900 nM; on BACE1 [2], 1420 nM.

Regarding `CC#CCOc1cnc(/C(F)=C/c2ccc(F)c([C@@]3(C)N=C(N)[C@@]4(CF)CC[C@@H]3S4(=O)=O)c2)cn1` [Example 137, (1R,4R,5S)-2-amino-4-(5-((Z)-2-(5-(but-2-yn-1-yloxy)pyrazin-2-yl)-2-fluorovinyl)-2-fluorophenyl)-1-(fluoromethyl)-4-methyl-8-thia-3-azabicyclo[3.2.1]oct-2-ene 8,8-dioxide], the IC50 at BACE1 [1] came to 1 nM; at human recombinant BACE2, 44 nM; at Cathepsin D (CatD) it was 65300 nM; at BACE1 [2] it was 4 nM.

For the molecule `C#C[C@H](C)Oc1cnc(/C(F)=C/c2ccc(F)c([C@]3(CF)CS(=O)(=O)C(C)(C)C(N)=N3)c2)cn1` [Example 195, (S)-5-amino-3-(5-((Z)-2-(5-((S)-but-3-yn-2-yloxy)pyrazin-2-yl)-2-fluorovinyl)-2-fluorophenyl)-3-(fluoromethyl)-6,6-dimethyl-3,6-dihydro-2H-1,4-thiazine 1,1-dioxide], the IC50 stood at 11 nM on BACE1 [1], 523 nM on human recombinant BACE2, 64900 nM on Cathepsin D (CatD) and 188 nM at BACE1 [2].

On to `C[C@H](O)COc1cnc(/C(F)=C/c2ccc(F)c([C@]3(C)CS(=O)(=O)C(C)(C)C(N)=N3)c2)cn1` [Example 219, (R)-5-amino-3-(2-fluoro-5-((Z)-2-fluoro-2-(5-((S)-2-hydroxypropoxy)pyrazin-2-yl)vinyl)phenyl)-3,6,6-trimethyl-3,6-dihydro-2H-1,4-thiazine 1,1-dioxide], for which the concentration for half-maximal inhibition (IC50) turned out to be 136 nM at BACE1 [1], 377 nM at human recombinant BACE2, 208000 nM on Cathepsin D (CatD) and 142 nM against BACE1 [2].

For `CN1C(N)=N[C@](C)(c2cc(/C=C(\F)c3ccc(Br)cn3)cc(F)c2F)CS1(=O)=O` [Example 105, (R,Z)-3-amino-5-(5-(2-(5-bromopyridin-2-yl)-2-fluorovinyl)-2,3-difluorophenyl)-2,5-dimethyl-5,6-dihydro-2H-1,2,4-thiadiazine 1,1-dioxide], the IC50 is 12 nM at BACE1 [1], 9 nM at human recombinant BACE2, 35800 nM at Cathepsin D (CatD) and 23 nM against BACE1 [2].

For `CN1C(N)=N[C@](C)(c2cc(/C=C(\F)c3ccc(Cl)cn3)cc(F)c2F)CS1(=O)=O` [Example 152, (R,Z)-3-amino-5-(5-(2-(5-chloropyridin-2-yl)-2-fluorovinyl)-2,3-difluorophenyl)-2,5-dimethyl-5,6-dihydro-2H-1,2,4-thiadiazine 1,1-dioxide], the IC50 at BACE1 [1] worked out at 15 nM; at human recombinant BACE2, 6 nM; on Cathepsin D (CatD), 48800 nM; against BACE1 [2], 47 nM.

Consider `COc1cnc(/C(F)=C/c2ccc(F)c([C@@]3(C)N=C(N)[C@@]4(CF)CC[C@@H]3S4(=O)=O)c2)cn1` [Example 121, (1R,4R,5S)-2-amino-4-(2-fluoro-5-((Z)-2-fluoro-2-(5-methoxypyrazin-2-yl)vinyl)phenyl)-1-(fluoromethyl)-4-methyl-8-thia-3-azabicyclo[3.2.1]oct-2-ene 8,8-dioxide], for which the IC50 at BACE1 [1] was 98 nM; at human recombinant BACE2 it was 180 nM; at Cathepsin D (CatD), over 400000 nM; against BACE1 [2], 191 nM.

On to `C[C@@]1(c2cc(/C=C(\F)c3ccc(Cl)cn3)ccc2F)CS(=O)(=O)C2(CCC2)C(N)=N1` [Example 100, (R,Z)-9-amino-7-(5-(2-(5-chloropyridin-2-yl)-2-fluorovinyl)-2-fluorophenyl)-7-methyl-5-thia-8-azaspiro[3.5]non-8-ene 5,5-dioxide], for which the IC50 on BACE1 [1] turned out to be 10 nM; at human recombinant BACE2, 7 nM; on Cathepsin D (CatD) it was 91000 nM; on BACE1 [2] it was 472 nM.

The term IC50 denotes the concentration needed to halve the response being measured.
